Assay results reported in ChEMBL document CHEMBL1201862, “PubChem BioAssay data set” (2004).
Calls of active or inactive are those of the source.

Columns and labels:
[1] = molecular target: Voltage-dependent T-type calcium channel subunit alpha-1H (Homo sapiens, UniProt O95180); assay: Cav3.2 T-type channel inhibitors, cell-based, synthetic library set 1, calcium flux (AID 493022); assay type: functional
[2] = Shn3 3'UTR reporter inhibitors, dose response, cell-based, Clone20 osteoblasts, firefly luciferase, cherry-picked (AID 624132); assay type: functional;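 further: firefly luciferase luminescence from reporter carrying the Shn3 3'UTR in osteoblasts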
[3] = inhibitors of firefly luciferase expression or activity, dose response, H4 neuroglioma cells, luminescence (AID 1990); assay type: functional, cell-based
[4] = cytotoxicity toward NIH3T3 fibroblasts, dose response, counter-screen, cell-based, ATP luminescence, mouse fibroblasts (AID 2010); assay type: functional;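 further: cells exposed to compound for about 90 hours before reading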
[5] = cells; assay type: functional, cell-based
[6] = cells; assay type: functional
[7] = inhibitors of intracellular T. cruzi replication, confirmation, NIH3T3 host cells, beta-gal luminescence (AID 2044); assay type: functional, cell-based;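 further: intracellular parasites grown in NIH/3T3 mouse fibroblasts as host cells; luminescent beta-galactosidase reporter signal from transgenic T. cruzi replicating inside host cells; inhibitors lower the luminescence signal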
[8] = control 3'UTR Renilla luciferase suppression, dose response, counter-screen for Shn3 inhibitor project, cell-based, Clone20-Shn3RL, cherry-picked (AID 624133); assay type: functional
[9] = HepG2 cell cytotoxicity, dose response, cytotoxicity control for non-replicating M. tuberculosis project (AID 489018); assay type: functional; details: Mycobacterium tuberculosis
[10] = Vero E6 cell cytotoxicity, dose response, cytotoxicity control for non-replicating M. tuberculosis project, secondary assay (AID 492998); assay type: functional, VeroE6; details: Vero C1008
[11] = HepG2 cell cytotoxicity, dose response, cytotoxicity control for Shn3 inhibitor project, CellTiter-Glo, cherry-picked (AID 624134); assay type: functional, cell-based
[12] = cells; assay type: functional, cell-based; remark: listed apart in the source
[13] = inhibitors of SNCA 5'UTR-driven reporter translation, confirmation, H4 neuroglioma cells, luminescence (AID 1988); assay type: functional, cell-based
[14] = Luminescence Cell-Based Dose Response HTS to Identify Inhibitors of 5'UTR Stem-Loop Driven Prion Protein mRNA Translation in H4 Neuroglioblastoma Cells. [Related pubchem assays: 1827 (Project Summary), 1813 (Primary HTS)]; assay type: functional
[15] = test system: H9c2; assay: cells; assay type: functional, cell-based; details: Rattus norvegicus, H9c2, Myocardium;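 further: confirmatory concentration-response retest of ultra-high-throughput screening hits for modulation of myocardial damage; cell death induced by hydrogen peroxide oxidative stress; compound pretreatment for 60 min then peroxide exposure for 2 h; potency is for protecting the cells against peroxide damage rather than for killing them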
[16] = THP-1 cell cytotoxicity, dose response, cytotoxicity control for non-replicating M. tuberculosis project (AID 489025); assay type: functional
[17] = molecular target: Nonstructural protein 1 (Influenza A virus, UniProt Q194T2); assay type: functional, Influenza A virus (A/California/07/2009(H1N1))
[18] = molecular target: T1, Zinc finger protein mex-5 (Caenorhabditis elegans, UniProt Q9XUB2); assay: MEX-5/TCR-2 RNA interaction inhibitors, dose response, biochemical, C. elegans, fluorescence polarization (AID 1960)
T1 sequence (Q9XUB2 whole entry): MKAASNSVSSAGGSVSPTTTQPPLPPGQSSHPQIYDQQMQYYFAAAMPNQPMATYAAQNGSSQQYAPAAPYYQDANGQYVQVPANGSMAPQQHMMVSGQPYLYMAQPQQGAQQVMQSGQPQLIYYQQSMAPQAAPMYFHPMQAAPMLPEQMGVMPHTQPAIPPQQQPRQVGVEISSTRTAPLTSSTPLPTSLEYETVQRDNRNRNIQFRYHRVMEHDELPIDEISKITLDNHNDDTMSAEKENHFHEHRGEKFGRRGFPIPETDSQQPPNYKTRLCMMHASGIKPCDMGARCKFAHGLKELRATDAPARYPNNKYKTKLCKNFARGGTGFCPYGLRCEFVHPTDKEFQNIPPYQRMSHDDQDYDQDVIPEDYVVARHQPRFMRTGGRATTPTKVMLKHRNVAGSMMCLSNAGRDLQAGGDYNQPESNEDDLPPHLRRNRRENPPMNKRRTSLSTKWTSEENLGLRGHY

[19] = molecular target: T2, Heat shock factor protein 1 (Mus musculus, UniProt P38532); assay: inhibition of MG132-induced HSE-luciferase signal, confirmation, cell-based, NIH3T3, luminescence, dose retest (AID 2382); assay type: functional;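 further: NIH3T3 fibroblasts with HSF1-driven luciferase reporter stressed by proteasome inhibitor MG132; luminescence from HSF1-driven luciferase expression after 8 hours of MG132 stress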
T2 sequence (P38532 whole entry): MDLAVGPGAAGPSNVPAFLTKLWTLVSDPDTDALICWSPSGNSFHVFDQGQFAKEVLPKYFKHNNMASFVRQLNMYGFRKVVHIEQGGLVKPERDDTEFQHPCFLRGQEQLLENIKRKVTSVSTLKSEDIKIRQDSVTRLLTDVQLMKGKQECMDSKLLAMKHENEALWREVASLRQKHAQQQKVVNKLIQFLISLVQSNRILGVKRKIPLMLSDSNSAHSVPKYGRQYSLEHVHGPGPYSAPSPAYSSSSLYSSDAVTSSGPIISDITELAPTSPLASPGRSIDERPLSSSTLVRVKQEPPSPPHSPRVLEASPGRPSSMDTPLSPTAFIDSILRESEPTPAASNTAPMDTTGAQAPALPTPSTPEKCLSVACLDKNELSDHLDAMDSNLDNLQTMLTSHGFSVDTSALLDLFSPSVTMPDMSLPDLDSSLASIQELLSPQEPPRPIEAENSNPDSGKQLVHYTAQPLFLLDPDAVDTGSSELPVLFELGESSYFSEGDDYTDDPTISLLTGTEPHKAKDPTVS

[20] = molecular target: T3, SUMO-activating enzyme (Homo sapiens, UniProt Q9UBT2); assay: inhibitors of in vitro SUMOylation cascade, primary screen, biochemical, HTRF, uHTS (AID 2006); assay type: protein-complex assay
[21] = molecular target: T3, SUMO-activating enzyme; assay: SUMOylation inhibitor hit validation, confirmation, SUMOylation inhibitor project, biochemical, AlphaScreen (AID 2018); assay type: functional
[22] = molecular target: T4, Aminopeptidase N (Plasmodium falciparum FcB1/Columbia, UniProt O96935); assay: P. falciparum M1AAP inhibitors, biochemical, fluorogenic H-Leu-NHMec substrate, 1536-well (AID 1445); set-up: species or system Plasmodium falciparum 3D7, 3D7
T4 sequence (O96935 whole entry): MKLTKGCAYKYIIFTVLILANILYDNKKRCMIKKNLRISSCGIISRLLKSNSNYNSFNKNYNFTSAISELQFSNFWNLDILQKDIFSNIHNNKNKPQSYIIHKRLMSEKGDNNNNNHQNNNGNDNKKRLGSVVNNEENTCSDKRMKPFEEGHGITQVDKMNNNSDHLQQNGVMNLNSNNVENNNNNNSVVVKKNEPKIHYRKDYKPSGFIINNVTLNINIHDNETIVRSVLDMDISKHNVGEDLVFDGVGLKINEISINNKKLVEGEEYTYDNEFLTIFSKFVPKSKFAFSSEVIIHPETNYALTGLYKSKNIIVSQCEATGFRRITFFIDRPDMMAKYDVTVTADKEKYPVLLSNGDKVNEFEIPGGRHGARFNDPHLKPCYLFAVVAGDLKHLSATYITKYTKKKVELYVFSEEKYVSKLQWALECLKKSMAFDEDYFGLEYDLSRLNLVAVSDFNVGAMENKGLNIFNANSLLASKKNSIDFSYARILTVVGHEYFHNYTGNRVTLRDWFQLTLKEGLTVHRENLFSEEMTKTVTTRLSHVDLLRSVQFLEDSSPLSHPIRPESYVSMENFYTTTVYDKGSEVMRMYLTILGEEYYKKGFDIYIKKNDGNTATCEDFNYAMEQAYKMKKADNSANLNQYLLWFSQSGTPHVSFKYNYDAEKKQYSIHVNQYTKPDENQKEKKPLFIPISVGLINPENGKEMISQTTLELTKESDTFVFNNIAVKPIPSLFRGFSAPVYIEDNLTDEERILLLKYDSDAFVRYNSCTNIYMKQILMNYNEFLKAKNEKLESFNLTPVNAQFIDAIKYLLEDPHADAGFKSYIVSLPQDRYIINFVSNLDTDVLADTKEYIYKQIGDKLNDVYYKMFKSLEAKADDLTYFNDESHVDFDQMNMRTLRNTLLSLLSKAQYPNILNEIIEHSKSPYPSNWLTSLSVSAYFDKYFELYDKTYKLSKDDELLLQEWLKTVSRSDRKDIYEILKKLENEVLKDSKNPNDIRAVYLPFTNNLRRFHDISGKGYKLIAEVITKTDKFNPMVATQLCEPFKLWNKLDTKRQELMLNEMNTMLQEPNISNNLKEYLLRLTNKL

[23] = molecular target: T5, RNA-binding protein pos-1 (Caenorhabditis elegans, UniProt G5EF15); assay: inhibitors of POS-1/mex-3 RNA binding, dose response, biochemical, fluorescence polarization (AID 1964);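 further: purified POS-1 fused to maltose binding protein made in E. coli; potency of compounds blocking POS-1 binding to fluorescent RNA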
T5 sequence (G5EF15 whole entry): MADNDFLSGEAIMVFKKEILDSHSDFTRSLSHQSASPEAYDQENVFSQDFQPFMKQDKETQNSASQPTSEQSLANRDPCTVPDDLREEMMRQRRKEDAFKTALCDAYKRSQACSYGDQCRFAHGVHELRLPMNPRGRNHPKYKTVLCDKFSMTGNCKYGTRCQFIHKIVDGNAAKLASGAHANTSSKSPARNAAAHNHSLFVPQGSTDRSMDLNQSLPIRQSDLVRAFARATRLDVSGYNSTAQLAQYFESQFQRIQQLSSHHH

[24] = molecular target: Beta-galactosidase (Escherichia coli, UniProt Q8VNN2); assay: beta-galactosidase enzyme inhibitors and activators, dose response, artefact control for CCR6 antagonist project, biochemical, E. coli enzyme, set 3 (AID 504712); assay type: functional
[25] = test system: Vero; assay: cells; assay type: functional; details: Chlorocebus sabaeus
[26] = test system: Streptococcus sp. 'group A'; assay: growth inhibition of control SK(-) GAS strain, dose response, counter-screen for streptokinase expression inhibitor project, luminescence, kanamycin, BacTiterGlo, confirmation (AID 1900); assay type: functional, organism-based
[27] = test system: Streptococcus; assay: Group A Streptococcus viability loss, dose response, counter-screen for streptokinase expression inhibitor project, luminescence, BacTiterGlo (AID 1915); assay type: functional, organism-based;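 further: potency for reduction of bacterial viability or growth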
[28] = molecular target: C-C chemokine receptor type 6 (Homo sapiens, UniProt P51684); assay: CCR6 receptor antagonists, dose response, cell-based, luminescent beta-arrestin readout (AID 504728); assay type: functional
[29] = inhibition of K1F phage lysis, E. coli UTI89, bacterial capsule biogenesis inhibitors, alamar blue (AID 488966); assay type: functional

T3 sequence (Q9UBE0 whole entry): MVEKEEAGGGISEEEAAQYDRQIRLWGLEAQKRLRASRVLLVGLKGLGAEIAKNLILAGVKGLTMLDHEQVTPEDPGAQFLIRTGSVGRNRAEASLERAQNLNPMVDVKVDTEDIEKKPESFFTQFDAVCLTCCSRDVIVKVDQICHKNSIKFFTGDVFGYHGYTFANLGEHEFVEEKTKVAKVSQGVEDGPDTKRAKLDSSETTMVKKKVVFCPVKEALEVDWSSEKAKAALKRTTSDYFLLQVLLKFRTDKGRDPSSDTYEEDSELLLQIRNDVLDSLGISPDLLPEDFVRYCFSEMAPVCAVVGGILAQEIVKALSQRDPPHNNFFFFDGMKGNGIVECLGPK
T3 sequence (Q9UBT2 whole entry): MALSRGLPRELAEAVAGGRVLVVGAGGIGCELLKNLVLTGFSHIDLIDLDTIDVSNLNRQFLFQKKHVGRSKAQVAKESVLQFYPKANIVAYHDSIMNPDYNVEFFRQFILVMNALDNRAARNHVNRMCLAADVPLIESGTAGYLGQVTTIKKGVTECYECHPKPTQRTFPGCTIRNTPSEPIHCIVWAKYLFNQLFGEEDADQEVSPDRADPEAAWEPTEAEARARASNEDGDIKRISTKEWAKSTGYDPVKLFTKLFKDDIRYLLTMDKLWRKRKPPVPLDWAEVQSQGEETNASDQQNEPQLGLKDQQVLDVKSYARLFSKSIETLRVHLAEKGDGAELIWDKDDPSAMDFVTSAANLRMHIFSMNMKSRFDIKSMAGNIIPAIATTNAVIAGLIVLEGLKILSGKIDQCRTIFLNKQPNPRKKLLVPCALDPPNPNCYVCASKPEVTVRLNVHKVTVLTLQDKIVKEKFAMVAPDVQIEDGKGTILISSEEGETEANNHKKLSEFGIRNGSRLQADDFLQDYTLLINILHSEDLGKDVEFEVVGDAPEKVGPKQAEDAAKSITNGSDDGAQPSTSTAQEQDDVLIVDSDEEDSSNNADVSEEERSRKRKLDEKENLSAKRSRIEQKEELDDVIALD
Nonstructural protein 1, sequence (Q194T2 whole entry): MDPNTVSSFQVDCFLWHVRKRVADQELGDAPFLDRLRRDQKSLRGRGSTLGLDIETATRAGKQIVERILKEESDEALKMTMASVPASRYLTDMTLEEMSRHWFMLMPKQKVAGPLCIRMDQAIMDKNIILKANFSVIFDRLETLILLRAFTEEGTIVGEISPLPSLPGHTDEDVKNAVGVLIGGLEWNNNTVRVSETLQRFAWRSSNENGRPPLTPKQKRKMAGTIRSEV
Beta-galactosidase, sequence (Q8VNN2 whole entry): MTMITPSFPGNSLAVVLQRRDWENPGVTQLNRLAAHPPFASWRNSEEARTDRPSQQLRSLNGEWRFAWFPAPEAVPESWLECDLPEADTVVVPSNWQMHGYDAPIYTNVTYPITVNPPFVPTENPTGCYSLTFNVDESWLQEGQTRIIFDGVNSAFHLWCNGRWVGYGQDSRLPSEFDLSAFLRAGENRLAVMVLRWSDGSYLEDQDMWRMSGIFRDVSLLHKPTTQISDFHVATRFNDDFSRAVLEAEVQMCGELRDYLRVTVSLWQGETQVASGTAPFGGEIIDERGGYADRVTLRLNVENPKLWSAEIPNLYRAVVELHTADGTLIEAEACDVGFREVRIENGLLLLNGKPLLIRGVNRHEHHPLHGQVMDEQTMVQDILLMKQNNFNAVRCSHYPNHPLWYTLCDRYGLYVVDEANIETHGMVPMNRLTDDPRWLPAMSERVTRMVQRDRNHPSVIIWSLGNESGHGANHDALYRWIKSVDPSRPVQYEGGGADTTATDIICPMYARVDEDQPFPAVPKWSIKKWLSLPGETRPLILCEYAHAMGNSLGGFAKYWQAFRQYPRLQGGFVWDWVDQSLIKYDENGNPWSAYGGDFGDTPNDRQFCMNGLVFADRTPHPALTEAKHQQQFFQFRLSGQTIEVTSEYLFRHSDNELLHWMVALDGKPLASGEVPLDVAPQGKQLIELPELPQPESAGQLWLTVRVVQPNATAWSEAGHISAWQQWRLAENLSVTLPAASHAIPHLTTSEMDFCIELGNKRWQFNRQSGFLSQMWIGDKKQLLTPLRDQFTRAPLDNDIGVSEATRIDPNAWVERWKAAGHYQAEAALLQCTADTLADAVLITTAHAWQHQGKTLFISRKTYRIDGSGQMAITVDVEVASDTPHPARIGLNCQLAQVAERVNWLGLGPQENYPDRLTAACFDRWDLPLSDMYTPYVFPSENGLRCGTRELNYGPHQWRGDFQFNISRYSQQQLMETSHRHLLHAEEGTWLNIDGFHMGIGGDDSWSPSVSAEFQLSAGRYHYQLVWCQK
Voltage-dependent T-type calcium channel subunit alpha-1H, sequence (O95180 whole entry): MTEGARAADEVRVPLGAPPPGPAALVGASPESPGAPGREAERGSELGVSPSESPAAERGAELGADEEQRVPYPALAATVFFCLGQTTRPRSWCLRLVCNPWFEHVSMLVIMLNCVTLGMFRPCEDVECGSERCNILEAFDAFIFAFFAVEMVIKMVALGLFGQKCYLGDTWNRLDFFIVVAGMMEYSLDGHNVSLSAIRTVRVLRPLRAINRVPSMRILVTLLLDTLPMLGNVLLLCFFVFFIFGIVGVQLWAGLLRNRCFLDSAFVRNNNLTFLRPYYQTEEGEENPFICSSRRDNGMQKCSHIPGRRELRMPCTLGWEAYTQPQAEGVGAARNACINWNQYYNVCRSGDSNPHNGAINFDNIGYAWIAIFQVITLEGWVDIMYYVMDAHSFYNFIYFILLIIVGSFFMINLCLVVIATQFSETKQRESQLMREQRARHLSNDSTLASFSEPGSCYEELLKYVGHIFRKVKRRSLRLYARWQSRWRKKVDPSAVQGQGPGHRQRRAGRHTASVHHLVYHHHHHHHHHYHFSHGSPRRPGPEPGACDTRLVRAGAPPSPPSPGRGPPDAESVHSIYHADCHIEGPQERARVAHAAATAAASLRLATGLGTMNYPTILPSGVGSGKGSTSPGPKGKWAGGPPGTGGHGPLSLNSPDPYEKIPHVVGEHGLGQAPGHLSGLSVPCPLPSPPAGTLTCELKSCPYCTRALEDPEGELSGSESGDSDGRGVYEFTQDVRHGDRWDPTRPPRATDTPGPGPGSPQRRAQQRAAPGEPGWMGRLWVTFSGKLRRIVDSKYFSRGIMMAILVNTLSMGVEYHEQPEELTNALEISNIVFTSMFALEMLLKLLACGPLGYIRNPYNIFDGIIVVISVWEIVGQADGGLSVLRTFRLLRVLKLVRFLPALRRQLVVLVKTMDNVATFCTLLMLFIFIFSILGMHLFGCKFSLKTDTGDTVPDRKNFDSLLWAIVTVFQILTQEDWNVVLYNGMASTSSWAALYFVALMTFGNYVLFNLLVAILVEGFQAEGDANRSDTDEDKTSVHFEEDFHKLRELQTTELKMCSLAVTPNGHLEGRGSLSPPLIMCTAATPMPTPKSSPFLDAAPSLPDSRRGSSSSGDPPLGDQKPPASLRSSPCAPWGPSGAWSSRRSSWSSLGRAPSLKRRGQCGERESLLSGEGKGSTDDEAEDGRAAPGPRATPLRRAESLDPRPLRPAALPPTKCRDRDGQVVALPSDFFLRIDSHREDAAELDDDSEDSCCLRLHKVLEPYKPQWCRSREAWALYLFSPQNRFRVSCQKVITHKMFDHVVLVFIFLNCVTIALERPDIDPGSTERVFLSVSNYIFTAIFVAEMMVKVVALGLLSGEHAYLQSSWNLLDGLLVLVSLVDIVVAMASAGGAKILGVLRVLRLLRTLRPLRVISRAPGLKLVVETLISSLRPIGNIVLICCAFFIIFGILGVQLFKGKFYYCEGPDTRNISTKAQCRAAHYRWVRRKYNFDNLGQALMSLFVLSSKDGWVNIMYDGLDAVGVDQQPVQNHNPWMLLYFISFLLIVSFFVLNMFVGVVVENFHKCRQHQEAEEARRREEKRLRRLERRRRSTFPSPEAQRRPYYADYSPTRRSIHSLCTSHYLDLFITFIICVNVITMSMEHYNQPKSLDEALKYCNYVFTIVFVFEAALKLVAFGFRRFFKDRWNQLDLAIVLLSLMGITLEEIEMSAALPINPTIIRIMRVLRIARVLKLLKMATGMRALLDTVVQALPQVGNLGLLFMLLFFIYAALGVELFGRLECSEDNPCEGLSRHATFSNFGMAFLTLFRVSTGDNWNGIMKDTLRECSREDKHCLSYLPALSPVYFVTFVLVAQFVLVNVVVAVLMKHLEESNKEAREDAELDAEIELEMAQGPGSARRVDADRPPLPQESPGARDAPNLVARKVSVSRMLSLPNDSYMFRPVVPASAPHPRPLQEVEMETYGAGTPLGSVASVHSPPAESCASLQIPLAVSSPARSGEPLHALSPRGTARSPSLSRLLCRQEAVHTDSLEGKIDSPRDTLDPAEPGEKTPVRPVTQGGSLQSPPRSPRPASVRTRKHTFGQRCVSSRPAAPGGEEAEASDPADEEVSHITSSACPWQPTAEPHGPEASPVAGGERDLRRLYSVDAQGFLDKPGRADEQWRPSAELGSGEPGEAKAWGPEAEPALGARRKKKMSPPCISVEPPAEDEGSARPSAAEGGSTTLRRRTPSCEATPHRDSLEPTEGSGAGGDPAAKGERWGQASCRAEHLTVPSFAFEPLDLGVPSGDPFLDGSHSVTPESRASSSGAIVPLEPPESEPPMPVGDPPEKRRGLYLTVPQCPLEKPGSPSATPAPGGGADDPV
C-C chemokine receptor type 6, sequence (P51684 whole entry): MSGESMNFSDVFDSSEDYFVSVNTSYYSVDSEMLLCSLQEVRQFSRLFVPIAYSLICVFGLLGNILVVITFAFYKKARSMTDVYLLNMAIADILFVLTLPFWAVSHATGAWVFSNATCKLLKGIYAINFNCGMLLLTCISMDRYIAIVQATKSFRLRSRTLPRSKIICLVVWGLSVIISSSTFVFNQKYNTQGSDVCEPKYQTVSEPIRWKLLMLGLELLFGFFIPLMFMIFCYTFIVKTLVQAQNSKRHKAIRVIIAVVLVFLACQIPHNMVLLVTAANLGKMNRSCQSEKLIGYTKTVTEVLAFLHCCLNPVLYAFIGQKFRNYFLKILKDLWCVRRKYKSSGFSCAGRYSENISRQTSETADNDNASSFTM

Question: For `O=C(COc1ccc(F)cc1Cl)Nc1nnc(-c2ccc3c(c2)OCCO3)o1`, which EC50 [1] is on record?
Answer: 2.6 µM (active)

Question: Which results are given for `Cc1cc(C)n(-c2ccc3cccc(NS(C)(=O)=O)c3n2)n1`?
Answer: AC50 [2]: 1.32 µM (active); EC50 [3]: 137 nM (active); EC50 [4]: 680 nM (active); EC50 [5]: > 350 µM (not active); IC50 [6]: > 25 µM (active); EC50 [7]: 1.07 µM (active); AC50 [8]: 759 nM (active); CC50 [9]: 19.3 µM (active); CC50 [10]: 3.8 µM (active); AC50 [11]: 6.2 µM (active); EC50 [12]: > 350 µM (not active); EC50 [13]: 159 nM (active); EC50 [14]: 7.99 µM (active); IC50 [15]: > 79 µM (inactive); CC50 [16]: 12.5 µM (active)

Question: For `Cc1ccccc1N1C(=O)/C(=C/NNC(=O)c2ccccc2O)C(=O)NC1=S`, which IC50 [17] is on record?
Answer: 13.4 µM (active)

Question: And the EC50 [18]?
Answer: 23.5 µM (active)

Question: What about the EC50 [19] of the same compound?
Answer: 30.8 µM (active)

Question: What about the IC50 [20] of the same compound?
Answer: 42.4 µM (active)

Question: And the IC50 [21]?
Answer: 25.7 µM (active)

Question: And the IC50 [22]?
Answer: 11.5 µM (active)

Question: And the EC50 [23]?
Answer: 21.2 µM (active)

Question: For `CCc1ccccc1OCC(=O)Nc1nc(-c2cccnc2)cs1`, which IC50 [24] is on record?
Answer: > 66.6 µM (inactive)

Question: What about the CC50 [25] of the same compound?
Answer: > 25 µM (active)

Question: What about the EC50 [26] of the same compound?
Answer: 428 nM (active)

Question: What about the EC50 [7] of the same compound?
Answer: 1.14 µM (active)

Question: And the EC50 [27]?
Answer: 3.28 µM (active)

Question: And the IC50 [28]?
Answer: > 66.6 µM (inactive)

Question: Which IC50 [29] does the source give for `Clc1ccc2c(NCCNC3CCCCC3)ccnc2c1` here?
Answer: > 150 µM (active)
